Data: ChEMBL document CHEMBL1155771, “Emergence of KPC-2 and KPC-3 in carbapenem-resistant Klebsiella pneumoniae strains in an Israeli hospital” (2007)
≈ marks a conversion by molar mass, not a printed value.

Key:
Klebsiella pneumoniae [1] = experiment: Antibacterial activity against carbapenem-resistant Klebsiella pneumoniae 469 isolate producing KPC2, OXA4 and CTX-M-10 carbapenemases; assay type: functional
Klebsiella pneumoniae [2] = experiment: Antibacterial activity against carbapenem-resistant Klebsiella pneumoniae 490 isolate producing KPC3 and TEM1 carbapenemases; assay type: functional
Escherichia coli [3] = experiment: Antibacterial activity against sEscherichia coli GeneHogs recipient strain without blaKPC-encoding plasmid
Escherichia coli [4] = experiment: Antibacterial activity against carbapenem-resistant blaKPC-encoding plasmid harboring Escherichia coli GeneHogs transformant of Klebsiella pneumoniae 490 producing KPC3 and TEM1 carbapenemases
Escherichia coli [5] = experiment: Antibacterial activity against carbapenem-resistant blaKPC-encoding plasmid harboring Escherichia coli GeneHogs transformants of Klebsiella pneumoniae 469 producing KPC2, OXA4 and CTX-M-10 carbapenemases

Compound	MIC (Klebsiella pneumoniae [1]) [µg/mL]	MIC (Klebsiella pneumoniae [2]) [µg/mL]	MIC (Escherichia coli [3]) [µg/mL]	MIC (Escherichia coli [4]) [µg/mL]	MIC (Escherichia coli [5]) [µg/mL]
C[C@@H](O)[C@H]1C(=O)N2C(C(=O)O)=C(S[C@@H]3CN[C@H](C(=O)Nc4cccc(C(=O)O)c4)C3)[C@H](C)[C@H]12	16 (≈ 33.6 µM)	64 (≈ 135 µM)	< 0.25	2 (≈ 4.21 µM)	4 (≈ 8.41 µM)
CO/N=C(\C(=O)N[C@@H]1C(=O)N2C(C(=O)[O-])=C(C[N+]3(C)CCCC3)CS[C@H]12)c1csc(N)n1	> 64	> 64	< 1		
NCC[C@H](O)C(=O)N[C@@H]1C[C@H](N)[C@@H](O[C@H]2O[C@H](CN)[C@@H](O)[C@H](O)[C@H]2O)[C@H](O)[C@H]1O[C@H]1O[C@H](CO)[C@@H](O)[C@H](N)[C@H]1O [AMIKACIN]	4 (≈ 6.83 µM)	> 64	< 2	< 2	16 (≈ 27.3 µM)
C[C@H]1[C@H](NC(=O)/C(=N\OC(C)(C)C(=O)O)c2csc(N)n2)C(=O)N1S(=O)(=O)O [AZTREONAM]			< 1		32 (≈ 73.5 µM)
CC(C)(O/N=C(\C(=O)N[C@@H]1C(=O)N2C(C(=O)[O-])=C(C[n+]3ccccc3)CS[C@H]12)c1csc(N)n1)C(=O)O [CEFTAZIDIME]	> 64	> 64	< 1	16 (≈ 29.3 µM)	> 64
CO/N=C(\C(=O)N[C@@H]1C(=O)N2C(C(=O)O)=C(CSc3nc(=O)c(O)nn3C)CS[C@H]12)c1csc(N)n1 [CEFTRIAXONE]	> 64	> 64	< 1	8 (≈ 14.4 µM)	> 64
O=C(O)c1cn(C2CC2)c2cc(N3CCNCC3)c(F)cc2c1=O [CIPROFLOXACIN]			< 0.25		
C[C@@H](O)[C@H]1C(=O)N2C(C(=O)O)=C(SCCNC=N)C[C@H]12 [IMIPENEM ANHYDROUS]	16 (≈ 53.4 µM)	32 (≈ 107 µM)	< 0.25	4 (≈ 13.4 µM)	4 (≈ 13.4 µM)
C[C@@H](O)[C@H]1C(=O)N2C(C(=O)O)=C(S[C@@H]3CN[C@H](C(=O)N(C)C)C3)[C@H](C)[C@H]12 [MEROPENEM]	8 (≈ 20.9 µM)	32 (≈ 83.4 µM)	< 0.25	2 (≈ 5.22 µM)	4 (≈ 10.4 µM)
CCN1CCN(C(=O)N[C@@H](C(=O)N[C@@H]2C(=O)N3[C@@H]2SC(C)(C)[C@@H]3C(=O)O)c2ccccc2)C(=O)C1=O [PIPERACILLIN]	> 128	> 128	< 4	> 128	> 128
CN(C)c1cc(NC(=O)CNC(C)(C)C)c(O)c2c1C[C@H]1C[C@H]3[C@H](N(C)C)C(O)=C(C(N)=O)C(=O)[C@@]3(O)C(O)=C1C2=O [TIGECYCLINE]	2 (≈ 3.41 µM)	2 (≈ 3.41 µM)	0.016 (≈ 0.0273 µM)	0.5 (≈ 0.854 µM)	0.5 (≈ 0.854 µM)
COLISTIN	0.25	0.25			
